Several values for one entry are separate records, joined by “and”; a condition that tells them apart may be missing. Equal entries are not always repeated. Toxic doses and inconclusive results are not listed.
System: B6C3F1 mice, B16 melanoma ip, median survival T/C
Assay: NCI In Vivo Anticancer Drug Screen. Data for tumor model B16 Melanoma (intraperitoneal) in B6C3F1 mice
Details: endpoint: median survival time, higher = longer survival
Summary of the method: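 Transplantable tumor in mice; treated vs vehicle control groups; survival or tumor size measured; value = T/C ratio.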

[1] = dose: 25.0 mg/kg/injection, schedule: Q01DX009 (ip), vehicle: saline
[2] = dose: 50.0 mg/kg/injection, schedule: Q01DX009 (ip), vehicle: saline
[3] = dose: 100.0 mg/kg/injection, schedule: Q01DX009 (ip), vehicle: saline
[4] = dose: 200.0 mg/kg/injection, schedule: Q01DX009 (ip), vehicle: saline
[5] = dose: 12.5 mg/kg/injection, schedule: Q01DX009 (ip), vehicle: saline

For NC(=O)CCC(N)C(=O)O (stereo unspecified), the T/C [1] was 105 % of control, the T/C [2] was 108 % of control and the T/C [3] was 103 % of control. For the same compound, the T/C [4] was 100 % of control and the T/C (dose: 400.0 mg/kg/injection, schedule: Q01DX009 (ip), vehicle: saline) was 108 % of control.

For CCO/C=C1\SC(=S)N(c2ccccc2C)C1=O, the T/C (dose: 12.5 mg/kg/injection, schedule: Q01DX009 (ip), vehicle: saline with Tween-80) was 111 % of control, the T/C (dose: 25.0 mg/kg/injection, schedule: Q01DX009 (ip), vehicle: saline with Tween-80) was 111 % of control and the T/C (dose: 50.0 mg/kg/injection, schedule: Q01DX009 (ip), vehicle: saline with Tween-80) was 108 % of control and 105 % of control. The T/C (dose: 100.0 mg/kg/injection, schedule: Q01DX009 (ip), vehicle: saline with Tween-80) was 109 % of control and 116 % of control and the T/C (dose: 200.0 mg/kg/injection, schedule: Q01DX009 (ip), vehicle: saline with Tween-80) was 112 % of control and 116 % of control.

C[N+](C)(C)c1ncnc2nc[nH]c12 was tested, and the T/C [5] was 98 % of control, the T/C [1] was 100 % of control and the T/C [2] was 114 % of control and 88 % of control. For the same compound, the T/C [3] was 93 % of control and 103 % of control and the T/C [4] was 93 % of control.

CN(C)N=Nc1ccc2c(c1)N(C)c1ccc(Cl)cc1S2 was tested, and the T/C (dose: 6.25 mg/kg/injection, schedule: Q01DX009 (ip), vehicle: other) was 99 % of control, the T/C (dose: 12.5 mg/kg/injection, schedule: Q01DX009 (ip), vehicle: other) was 109 % of control and the T/C (dose: 25.0 mg/kg/injection, schedule: Q01DX009 (ip), vehicle: other) was 114 % of control. For the same compound, the T/C (dose: 50.0 mg/kg/injection, schedule: Q01DX009 (ip), vehicle: other) was 110 % of control and the T/C (dose: 100.0 mg/kg/injection, schedule: Q01DX009 (ip), vehicle: other) was 114 % of control.

For C=C(NC(=O)C(=C)NC(=O)c1csc(C2=NC3c4csc(n4)C4NC(=O)c5csc(n5)C(C(C)(O)C(C)O)NC(=O)C5CSC(=N5)/C(=C/C)NC(=O)C(C(C)O)NC(=O)c5csc(n5)C3(CC2)NC(=O)C(C)NC(=O)C(=C)NC(=O)C(=C)NC(=O)C(C(C)C)NC2C=Cc3c(C(C)O)cc(nc3C2O)C(=O)OC4C)n1)C(N)=O (stereo unspecified), the T/C [1] was 121 % of control, the T/C [2] was 109 % of control and the T/C [4] was 121 % of control.

In the case of CCCCS(=N)(=O)CC[C@H](N)C(=O)O (stereo partly specified), the T/C (dose: 445.0 mg/kg/injection, schedule: Q04HX012 (ip), vehicle: water) is reported as 104 % of control and the T/C (dose: 890.0 mg/kg/injection, schedule: Q04HX012 (ip), vehicle: water) is reported as 107 % of control.

With CNCCN=c1ccc2c3c1c(O)c1c(O)ccc(=O)c1c3[nH]n2CCNCCO the T/C (dose: 0.38 mg/kg/injection, schedule: Q01DX009 (ip), vehicle: water) was 273 % of control, the T/C (dose: 0.75 mg/kg/injection, schedule: Q01DX009 (ip), vehicle: water) was 357 % of control and the T/C (dose: 1.5 mg/kg/injection, schedule: Q01DX009 (ip), vehicle: water) was 357 % of control. The T/C (dose: 3.0 mg/kg/injection, schedule: Q01DX009 (ip), vehicle: water) was 309 % of control and the T/C (dose: 3.12 mg/kg/injection, schedule: Q01DX009 (ip), vehicle: water) was 169 % of control.

With Clc1ccc(C[P+](c2ccccc2)(c2ccccc2)c2ccccc2)cc1Cl the T/C (dose: 0.78 mg/kg/injection, schedule: Q01DX009 (ip), vehicle: Klucel (hydroxypropylcellulose) (HPC)) was 99 % of control, the T/C (dose: 1.56 mg/kg/injection, schedule: Q01DX009 (ip), vehicle: Klucel (hydroxypropylcellulose) (HPC)) was 107 % of control and the T/C (dose: 3.12 mg/kg/injection, schedule: Q01DX009 (ip), vehicle: Klucel (hydroxypropylcellulose) (HPC)) was 103 % of control. For the same compound, the T/C (dose: 12.5 mg/kg/injection, schedule: Q01DX009 (ip), vehicle: Klucel (hydroxypropylcellulose) (HPC)) was 88 % of control.

For CCCC(NC(=O)OCc1ccccc1)C(=O)NC(C)C(=O)O (stereo unspecified), the T/C (dose: 25.0 mg/kg/injection, schedule: Q01DX009 (ip), vehicle: Klucel (hydroxypropylcellulose) (HPC)) was 101 % of control, the T/C (dose: 50.0 mg/kg/injection, schedule: Q01DX009 (ip), vehicle: Klucel (hydroxypropylcellulose) (HPC)) was 104 % of control and the T/C (dose: 100.0 mg/kg/injection, schedule: Q01DX009 (ip), vehicle: Klucel (hydroxypropylcellulose) (HPC)) was 102 % of control.

In the case of O=S1(=O)CCCO1, the T/C [5] is reported as 95 % of control, the T/C [1] is reported as 99 % of control and the T/C [2] is reported as 94 % of control.

For O=c1[nH]cnc2c1ccn2C1OC(CO)C(O)C1O (stereo unspecified), the T/C (dose: 0.37 mg/kg/injection, schedule: Q01DX009 (ip), vehicle: saline) was 106 % of control, the T/C (dose: 0.75 mg/kg/injection, schedule: Q01DX009 (ip), vehicle: saline) was 99 % of control and the T/C (dose: 1.5 mg/kg/injection, schedule: Q01DX009 (ip), vehicle: saline) was 106 % of control. For the same compound, the T/C (dose: 3.0 mg/kg/injection, schedule: Q01DX009 (ip), vehicle: saline) was 113 % of control, the T/C (dose: 6.0 mg/kg/injection, schedule: Q01DX009 (ip), vehicle: saline) was 115 % of control and the T/C (dose: 12.0 mg/kg/injection, schedule: Q01DX009 (ip), vehicle: saline) was 105 % of control.

From PubChem BioAssay AID200 (DTP/NCI, 2004)
